In patent publication US10669268B2, “Bicyclic derivatives” (Hoffmann-La Roche Inc., priority 2012, dated 2020) one finds IC50 data, which are given here for 31 molecules.

Molecules are shown by their SMILES.

In the assay the target is ATX (human His-tagged) (Homo sapiens (Human), UniProt Q13822). Briefly: Human ATX enzyme inhibition assay (fluorescence quenching, MR121 substrate). In kind it is biochemical. The following applies: 30 nM ATX, 1 μM MR121 substrate, 30° C., pH 8.0. Summed up:
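Tris-HCl buffer at pH 8.0 contained 140 mM NaCl, 5 mM KCl, 1 mM each CaCl2 and MgCl2, and 0.01% Triton X-100. The MR121 substrate (1 μM final) was incubated with enzyme for 15 min at 30 °C, and activity was read by fluorescence quenching.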

The IC50 is the concentration that inhibits the measured activity by half. In turn, `CS(=O)(=O)c1cc(Cl)cc(/C=C/C(=O)N2C[C@@H]3CN(C(=O)c4ccc5[nH]nnc5c4)C[C@H]3C2)c1` [Example 15.46] displayed a half-maximal inhibitory concentration (IC50) of 18 nM.
In turn, `O=C(OCCC1CCCCC1)N1C[C@@H]2CN(C(=O)c3ccc4[nH]nnc4c3)C[C@@H]2C1` [Example 4.22, (3aR,6aS)-2-cyclohexylethyl 5-(1H-benzo[d][1,2,3]triazole-5-carbonyl)hexahydropyrrolo[3,4-c]pyrrole-2(1H)-carboxylate] yielded an IC50 of 1380 nM.
To `O=C(CCc1ccc(F)cc1C(F)(F)F)N1CC[C@@H]2CN(C(=O)c3ccc4[nH]nnc4c3)C[C@@H]2CC1` [Example 17.05, 1-((3aR,8aS)-2-(1H-benzo[d][1,2,3]triazole-5-carbonyl)octahydropyrrolo[3,4-d]azepin-6(7H)-yl)-3-(4-fluoro-2-(trifluoromethyl)phenyl)propan-1-one] belongs 6 nM; to `CCOc1cc(C(=O)N2C[C@@H]3CN(C(=O)c4ccc5[nH]nnc5c4)C[C@H]3C2)nc2ccccc12` [Example 19.37, ((3aS,6aS)-5-(1H-benzo[d][1,2,3]triazole-5-carbonyl)hexahydropyrrolo[3,4-c]pyrrol-2(1H)-yl)(4-ethoxyquinolin-2-yl)methanone], 15 nM.
With `Cc1cc(CCC(=O)N2C[C@@H]3CN(C(=O)c4ccc5[nH]nnc5c4)C[C@H]3C2)c(C(C)C)cc1C#N` [Example 19.21, 4-[3-[(3aR,6aR)-5-(1H-benzotriazole-5-carbonyl)-1,3,3a,4,6,6a-hexahydropyrrolo[3,4-c]pyrrol-2-yl]-3-oxopropyl]-2-methyl-5-propan-2-ylbenzonitrile] the figure was 3 nM.
To `CS(=O)(=O)c1cc(Cl)cc(COC(=O)N2C[C@@H]3CN(C(=O)c4ccc5[nH]nnc5c4)C[C@@H]3C2)c1` [Example 4.04, (3aS,6aR)-5-(1H-benzotriazole-5-carbonyl)-hexahydro-pyrrolo[3,4-c]pyrrole-2-carboxylic acid 3-chloro-5-methanesulfonyl-benzyl ester] belongs 46 nM; to `CCOc1nc(C(=O)N2C[C@@H]3CN(C(=O)[C@@H]4CCc5[nH]nnc5C4)C[C@H]3C2)cc2ccccc12` [Example 19.35, [(3aS,6aS)-5-[(5R)-4,5,6,7-tetrahydro-1H-benzotriazole-5-carbonyl]-1,3,3a,4,6,6a-hexahydropyrrolo[3,4-c]pyrrol-2-yl]-(1-ethoxyisoquinolin-3-yl)methanone], 2 nM; to `O=C(OCc1cc(Cl)cc(Cl)c1)N1C[C@H]2CN(Cc3ccc4[nH]cnc4c3)C[C@H]2C1` [Example 6, (3aR,6aS)-3,5-Dichlorobenzyl 5-((1H-benzo[d]imidazol-5-yl)methyl)hexahydropyrrolo[3,4-c]pyrrole-2(1H)-carboxylate], 10400 nM.
Molecule `O=C(/C=C/c1ccc(OC(F)(F)F)cc1)N1CC[C@@H]2CN(C(=O)c3ccc4[nH]c(=O)oc4c3)C[C@@H]2CC1` [Example 2.02, 6-{(3aS,8aR)-6-[(E)-3-(4-trifluoromethoxy-phenyl)-acryloyl]-octahydro-pyrrolo[3,4-d]azepine-2-carbonyl}-3H-benzooxazol-2-one] registered an IC50 of 6 nM.
To `O=C(c1ccc2[nH]nnc2c1)N1C[C@H]2CN(C(=O)c3cc4cc(OC(F)(F)F)ccc4[nH]3)C[C@@H]2C1` [Example 15.99] belongs 12 nM.
To `COc1cc(/C=C/C(=O)N2C[C@@H]3CN(C(=O)c4ccc5[nH]nnc5c4)C[C@H]3C2)cc(OC)c1` [Example 15.47] belongs 96 nM.
As to `CCOc1cc(C(=O)N2C[C@@H]3CN(C(=O)[C@@H]4CCc5[nH]nnc5C4)C[C@H]3C2)nc2ccccc12` [Example 1.60, (4-ethoxyquinolin-2-yl)((3aS,6aS)-5-((R)-4,5,6,7-tetrahydro-1H-benzo[d][1,2,3]triazole-5-carbonyl)hexahydropyrrolo[3,4-c]pyrrol-2(1H)-yl)methanone], the IC50 was determined as 12 nM.
With `Cc1cc(OCC(=O)N2C[C@@H]3CN(C(=O)[C@@H]4CCc5[nH]nnc5C4)C[C@H]3C2)c(C(C)C)cc1C#N` [Example 19.27, 4-[2-[(3aS,6aS)-5-[(5R)-4,5,6,7-tetrahydro-1H-benzotriazole-5-carbonyl]-1,3,3a,4,6,6a-hexahydropyrrolo[3,4-c]pyrrol-2-yl]-2-oxoethoxy]-2-methyl-5-propan-2-ylbenzonitrile] the figure was 6 nM; with `O=C(OCc1cc(Cl)cc(Cl)c1)N1C[C@@H]2CN(C(=O)c3ccc4[nH]ccc4c3)C[C@@H]2C1` [Example 1.05, (3aR,6aS)-3,5-dichlorobenzyl 5-(1H-indole-5-carbonyl)hexahydropyrrolo[3,4-c]pyrrole-2(1H)-carboxylate], 90 nM; with `O=C(/C=C/c1ccc(Cl)cc1)N1CC[C@@H]2CN(C(=O)c3ccc4[nH]nnc4c3)C[C@@H]2CC1` [Example 15.06], 12 nM.
With `CC(C)(C)c1cc(C#N)ccc1OCC(=O)N1C[C@@H]2CN(C(=O)[C@@H]3CCc4[nH]nnc4C3)C[C@H]2C1` [Example 19.31, 4-[2-[(3aS,6aS)-5-[(5R)-4,5,6,7-tetrahydro-1H-benzotriazole-5-carbonyl]-1,3,3a,4,6,6a-hexahydropyrrolo[3,4-c]pyrrol-2-yl]-2-oxoethoxy]-3-tert-butylbenzonitrile], inhibition was half-maximal at 2 nM (IC50).
`O=C(c1cnc(OCC(F)(F)F)c(C2CC2)c1)N1C[C@@H]2CN(C(=O)c3ccc4[nH]nnc4c3)C[C@H]2C1` [Example 19.42, ((3aS,6aS)-5-(1H-benzo[d][1,2,3]triazole-5-carbonyl)hexahydropyrrolo[3,4-c]pyrrol-2(1H)-yl)(5-cyclopropyl-6-(2,2,2-trifluoroethoxy)pyridin-3-yl)methanone] displayed an IC50 of 10 nM.
With `O=C(c1ccc2[nH]nnc2c1)N1C[C@H]2CN(C(=O)N3CCC(c4ccc(Cl)cc4)CC3)C[C@@H]2C1` [Example 20, (1H-Benzotriazol-5-yl)-{(3aS,6aS)-5-[4-(4-chloro-phenyl)-piperidine-1-carbonyl]-hexahydro-pyrrolo[3,4-c]pyrrol-2-yl}-methanone] the figure was 29 nM; with `N#Cc1ccc(/C=C/C(=O)N2CC[C@@H]3CN(C(=O)c4ccc5[nH]nnc5c4)C[C@@H]3CC2)c(F)c1` [Example 15.34], 3 nM.
With `O=C(COc1ccccc1OC(F)(F)F)N1CC[C@@H]2CN(C(=O)c3ccc4[nH]nnc4c3)C[C@@H]2CC1` [Example 1.32, 1-[(3aS,8aR)-2-(1H-benzotriazole-5-carbonyl)-octahydro-pyrrolo[3,4-d]azepin-6-yl]-2-(2-trifluoromethoxy-phenoxy)-ethanone] the figure was 40 nM; with `O=C(OCc1ccc(OC(F)(F)F)cc1)N1CC[C@@H]2CN(C(=O)c3ccc4[nH]nnc4c3)C[C@H]2C1` (relative stereo) [Example 1.24, trans-2-(1H-benzotriazole-5-carbonyl)-octahydro-pyrrolo[3,4-c]pyridine-5-carboxylic acid 4-trifluoromethoxy-benzyl ester], 13 nM; with `Cc1ccc(OCC(=O)N2CC[C@@H]3CN(C(=O)c4ccc5[nH]nnc5c4)C[C@@H]3CC2)c(C2CCN(C)C2)c1` (stereo partly drawn) [Example 1.36, 1-[(3aS,8aR)-2-(1H-benzotriazole-5-carbonyl)-octahydro-pyrrolo[3,4-d]azepin-6-yl]-2-[4-methyl-2-(1-methyl-pyrrolidin-3-yl)-phenoxy]-ethanone], 7460 nM.
With `O=C(/C=C/c1cccc(OC(F)(F)F)c1)N1C[C@H]2CCN(C(=O)c3ccc4[nH]nnc4c3)C[C@@H]2C1` [Example 15.73] the figure was 116 nM.
The molecule `O=C1N[C@@H]2CCN(C(=O)N3C[C@H]4CN(C(=O)CCc5ccc(OC(F)(F)F)cc5)C[C@@H]4C3)C[C@H]2O1` [Example 15.55] came in with an IC50 of 478 nM.
Molecule `N#Cc1cccc(/C=C/C(=O)N2CC[C@@H]3CN(C(=O)c4ccc5[nH]nnc5c4)C[C@@H]3CC2)c1` [Example 15.38] returned a concentration for half-maximal inhibition (IC50) of 50 nM.
With `Cc1ccc(C(C)C)c(OCC(=O)N2C[C@@H]3CN(C(=O)c4ccc5[nH]nnc5c4)C[C@H]3C2)c1` [Example 19, 1-[(3aS,6aS)-5-(1H-benzotriazole-5-carbonyl)-hexahydro-pyrrolo[3,4-c]pyrrol-2-yl]-2-(2-isopropyl-5-methyl-phenoxy)-ethanone] the figure was 7 nM; with `O=C(CCc1ccc(OC(F)(F)F)cc1F)N1C[C@@H]2CN(C(=O)c3ccc4[nH]nnc4c3)C[C@H]2C1` [Example 17.04, 1-[(3aR,6aR)-5-(1H-benzotriazole-5-carbonyl)-hexahydro-pyrrolo[3,4-c]pyrrol-2-yl]-3-(2-fluoro-4-trifluoromethoxy-phenyl)-propan-1-one], 8 nM; with `N#Cc1ccc(/C=C/C(=O)N2CC[C@@H]3CN(C(=O)c4ccc5[nH]nnc5c4)C[C@@H]3CC2)cc1` [Example 15.11], 13 nM.
With `O=C(/C=C/c1ccc(OC(F)(F)F)cc1)N1C[C@H]2CCN(C(=O)c3ccc4[nH]nnc4c3)C[C@@H]2C1` [Example 15.74] the figure was 12 nM; with `O=C(CCc1ccc(OC(F)(F)F)c(F)c1)N1CC[C@@H]2CN(C(=O)c3ccc4[nH]nnc4c3)C[C@@H]2CC1` [Example 17, 1-((3aR,8aS)-2-(1H-Benzo[d][1,2,3]triazole-5-carbonyl)octahydropyrrolo[3,4-d]azepin-6(7H)-yl)-3-(3-fluoro-4-(trifluoromethoxy)phenyl)propan-1-one], 4 nM.
With `O=C(OCc1ccc(OC(F)(F)F)cc1)N1C[C@@H]2CN(C(=O)c3ccc4[nH]c(=O)oc4c3)C[C@H]2C1` [Example 2.04, (3aS,6aS)-5-(2-oxo-2,3-dihydro-benzooxazole-6-carbonyl)-hexahydro-pyrrolo[3,4-c]pyrrole-2-carboxylic acid 4-trifluoromethoxy-benzyl ester] the figure was 8 nM.
